Results as given in paper PMC6382696, “Drug Repurposing: The Anthelmintics Niclosamide and Nitazoxanide Are Potent TMEM16A Antagonists That Fully Bronchodilate Airways” (Frontiers in Pharmacology, 2019).
pIC50: −log10 of the molar value.

Legend:
HCT116 = system: HCT116; set-up: method as in Li et al., 2014; conditions: ref Li et al., 2014, read-out: IC50 inhibition of proliferation; cited from earlier work
[1] = system: primary human airway smooth muscle cells; experiment: Methacholine-induced depolarization of primary human airway smooth muscle cells; type: cell-based; conditions: donor 199524, 20 M methacholine (so in the source), read-out: EC50 inhibition of methacholine-induced depolarization (converted)
Procedure: Cultured human bronchial smooth muscle cells (BSMC) from Lonza were resuspended in Smooth Muscle Growth Medium-2 (SmGM-2; Lonza) at a concentration of 4 × 10^5 cells per ml. One hundred microliters of cells per well were plated in a black wall clear bottom polystyrene 96-well tissue culture plate and incubated in a 37°C humidified incubator with 5% CO2 overnight. Cells were serum starved by removing the SmGM-2 and replaced with one hundred microliters per well of Smooth Muscle Cell Basal Medium 2 (SmBM-2), phenol red-free (PromoCell), and incubated in a 37°C humidified incubator with 5% CO2 for 24 h. SmBM-2 was replaced with 100 microliters of fresh SmBM-2. […] Using the FLIPR-Tetra (Molecular Devices), three measurements of the baseline fluorescence were taken over the span of 1 min. […] Fifty-five fluorescence measurements were taken over the span of 14 min. The area under the curve (AUC) from the fluorescence kinetic traces (normalized to baseline fluorescence) were calculated. The amount of fluorescence in the presence of compound compared with that in the presence of DMSO vehicle alone (HI control) was calculated using the formula: % control (POC) = (compd – average LO)/(average HI – average LO)^∗100. […]
Panels (B-D) show raw fluorescence data from the membrane potential assay of buffer alone (dashed line), buffer plus 20 µM methacholine […]
RFU = relative fluorescence units. […]

mouse tracheal rings = experiment: β-agonist use-dependent desensitization of mouse tracheal rings; conditions: add-on after isoproterenol round 2
Source text: Standard procedures were used to prepare and mount tissues.

O=C(Nc1ccc([N+](=O)[O-])cc1Cl)c1cc(Cl)ccc1O [Niclosamide]
pIC50 (HCT116): 6.43

Oc1ccc(Cl)cc1Cc1cc(Cl)ccc1O [Dichlorophen]
EC50 [1]: 3.7 µM

COc1cc([N+](=O)[O-])ccc1NC(=O)c1cc(Cl)c2ccccc2c1O [Cpd 4]
% relaxation after add-on to desensitized ring (mouse tracheal rings; EC50 carbachol): 98.9% | % relaxation after add-on to desensitized ring (mouse tracheal rings; EC75 carbachol): 95.4%
